Laboratory results as given in the NIST ThermoML archive (doi:10.1021/je8006309).
± gives the expanded uncertainty stated by the source.

What was measured:
[1] = for Normal melting temperature: Crystal
[2] = Molar enthalpy of transition or fusion; details: Crystal; DSC

Row | Normal melting temperature [1] | Normal melting temperature ([1]; DTA) | Molar enthalpy of transition or fusion [2] | Glass transition temperature ([1]; Glass, DTA) | SMILES
1 | 7.36 ± 0.93 °C |  |  |  | CCCCCCCCCCO [decan-1-ol]
2 | -14.00 ± 0.93 °C |  |  |  | CCCCCCCCO [octan-1-ol]
3 |  | 5.14 ± 0.39 °C |  |  | c1ccccc1 [benzene]
4 |  | 51.71 ± 0.39 °C | 3.42 ± 0.0908 kcal/mol | -57.3 ± 3 °C | CCCC[n+]1ccc(C)cc1.Cc1ccc(S(=O)(=O)[O-])cc1 [N-butyl-4-methylpyridinium tosylate]
5 | 0.00 ± 0.93 °C |  |  |  | O [water]
